Measured values published in ChEMBL document CHEMBL6078682, “Circumventing Imatinib resistance in CML: Novel Telmisartan-based cell death modulators with improved activity and stability” (Eur J Med Chem, 2025).
In brackets after ≈: the same amount, converted by molar mass. Activity calls are given as the source filed them. The calls are words filed in the database; no cut-off is given here.

Columns and labels:
[1] = Stability in cell culture medium containing fetal bovine serum assessed as compound remaining at 200 uM at 37 degreeC measured after 72 hrs by RP-HPLC analysis; type: ADME, cell-free; conditions: cattle, read-out: Stability
[2] = Retention time of compound by HPLC analysis; type: physicochemical
[3] = Stability of compound in PBS buffer incubated for 8 to 24 hrs by HPLC analysis; type: physicochemical; conditions: time 8-24 hrs
COS-7 = test: Cytotoxicity against african green monkey COS-7 cells assessed as effect on metabolic activity at 10 uM incubated for 72 hrs by MTT assay; type: toxicity, cell-based; conditions: chlorocebus aethiops, cos-7, 72 h
[4] = Cytotoxicity against human HS5 cells assessed as effect on metabolic activity at 10 uM incubated for 72 hrs by MTT assay; type: toxicity, cell-based; conditions: hs5, 72 h
K562 [5] = test: Re-sensitization of human K562 cells to imatinib assessed as reduction in metabolic activity by measuring maximal sensitizing concentration in presence of imatinib by EZ4U assay; type: functional, cell-based; conditions: read-out: EC50
[6] = Drug uptake in human Imatinib-resistant K562 cells assessed as increase in fluorescent intensity measured after 24 hrs by coomassie brilliant blue staining based analysis; type: ADME, cell-based; conditions: k562-ima[r]
Liver carboxylesterase [7] = target: T1, Liver carboxylesterase (Sus scrofa, UniProt Q29550); test: Stability of the compound assessed as porcine liver esterase-mediated hydrolysis by measuring half life at 800 uM measured after 180 mins by HPLC analysis; type: ADME; conditions: pig
T1 sequence (Q29550 whole entry): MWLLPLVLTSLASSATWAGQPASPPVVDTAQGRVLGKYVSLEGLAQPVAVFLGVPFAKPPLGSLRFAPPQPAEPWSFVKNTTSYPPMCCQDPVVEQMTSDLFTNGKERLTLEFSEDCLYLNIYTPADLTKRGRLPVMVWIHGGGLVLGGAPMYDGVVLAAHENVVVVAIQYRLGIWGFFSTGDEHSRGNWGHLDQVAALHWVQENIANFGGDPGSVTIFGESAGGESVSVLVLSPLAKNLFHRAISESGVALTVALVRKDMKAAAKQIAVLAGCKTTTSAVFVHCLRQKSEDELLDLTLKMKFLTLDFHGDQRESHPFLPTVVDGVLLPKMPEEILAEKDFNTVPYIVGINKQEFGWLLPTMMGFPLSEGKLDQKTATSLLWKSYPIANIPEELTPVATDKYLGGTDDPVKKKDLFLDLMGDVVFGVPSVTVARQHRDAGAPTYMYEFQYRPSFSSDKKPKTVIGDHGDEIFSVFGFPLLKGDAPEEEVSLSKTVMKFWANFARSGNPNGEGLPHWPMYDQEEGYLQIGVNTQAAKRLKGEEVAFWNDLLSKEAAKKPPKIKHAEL

[8] = Drug uptake in human Imatinib-resistant K562 cells assessed as increase in fluorescent intensity measured after 3 hrs by coomassie brilliant blue staining based analysis; type: ADME, cell-based; conditions: k562-ima[r]
K562 [9] = test: Re-sensitization of human K562 cells to imatinib assessed as reduction in metabolic activity at 5 uM in presence of 1 uM imatinib by EZ4U assay; type: functional, cell-based
K562-IMA[r] = test: Cytotoxicity against human Imatinib-resistant K562 cells assessed as effect on metabolic activity at 10 uM incubated for 72 hrs by MTT assay; type: functional, cell-based
[10] = Stability of the compound assessed as Pseudomonas aeruginosa Amidase-mediated hydrolysis at 800 uM measured after 6 hrs by HPLC analysis; type: ADME; conditions: isolated protein
Liver carboxylesterase [11] = target: T1, Liver carboxylesterase; test: Stability of the compound assessed as porcine liver esterase-mediated hydrolysis at 800 uM measured after 180 mins by HPLC analysis; type: ADME; conditions: pig, isolated protein, 3 h
[12] = Stability of the compound assessed as Pseudomonas aeruginosa Amidase-mediated hydrolysis at 800 uM measured after 24 hrs by HPLC analysis; type: ADME; conditions: isolated protein
amidase = test: Stability of the compound assessed as Pseudomonas aeruginosa Amidase-mediated hydrolysis by measuring half life at 800 uM measured after 24 hrs by HPLC analysis; type: ADME
[13] = Solubility of compound in DMSO measured for 30 mins by UV-spectroscopy analysis; type: physicochemical
K562 [14] = test: Re-sensitization of human K562 cells to imatinib assessed as reduction in metabolic activity at 10 uM in presence of imatinib by EZ4U assay; type: functional, cell-based
[15] = Drug uptake in human Imatinib-resistant K562 cells assessed as increase in fluorescent intensity measured after 1 hr by coomassie brilliant blue staining based analysis; type: ADME, cell-based; conditions: k562-ima[r]
K562 [16] = test: Re-sensitization of human K562 cells to imatinib assessed as reduction in metabolic activity at 5 uM in presence of imatinib by EZ4U assay; type: functional, cell-based
[17] = Drug uptake in human Imatinib-resistant K562 cells assessed as increase in fluorescent intensity measured at 24 hrs by coomassie brilliant blue staining based analysis; type: ADME, cell-based; conditions: k562-ima[r]
[18] = Drug uptake in human Imatinib-resistant K562 cells assessed as increase in fluorescent intensity measured after 1 to 24 hrs by coomassie brilliant blue staining based analysis; type: ADME, cell-based; conditions: k562-ima[r], time 1-24 hrs

Row | remaining at 72 h, 200 µM [1] [%] | Retention_time [2] [min] | Stability [3] | half-life at 800 µM (Liver carboxylesterase [7]) [h] | Stability (Liver carboxylesterase [11]) | SMILES | Activity (COS-7) | Activity [4] | maximal sensitizing concentration (K562 [5]) [nM] | Activity (K562 [9]) | Activity (K562-IMA[r]) | further results
1 | 94.8 | 13.7 | Stable | 4.67 | – | CCCc1nc2ccccc2n1Cc1ccc(-c2ccccc2C(=O)Oc2ccccc2)cc1 | Non-toxic | Non-toxic | 1500 | Active | inactive | Drug uptake [6]: 15.7 nmol/mg; Drug uptake [8]: 13.1 nmol/mg
2 | 102 | 13.6 | Stable | – | Stable | CCCc1nc2ccccc2n1Cc1ccc(-c2ccccc2C(=O)Nc2ccc(Oc3ccccc3)cc2)cc1 | Non-toxic | Non-toxic | 1300 | Active | inactive | Stability [10]: Stable
3 | 95.1 | < 10.3 | Stable | – | Stable | CCCc1nc2ccccc2n1Cc1ccc(-c2ccccc2C(=O)NCC)cc1 | Non-toxic | Non-toxic | 6200 | Active | inactive | Stability [12]: Stable; half-life at 800 µM (amidase): 65 h
4 | – | 15.3 | Stable | – | – | CCCc1nc2ccccc2n1Cc1ccc(-c2ccccc2C(=O)Oc2ccc(-c3ccccc3)cc2)cc1 | – | – | – | – | – | solubility at 0.5 h [13]: 16 mM (≈ 8.36 mg/mL)
5 | 99.8 | 15.2 | Stable | 6.17 | – | CCCc1nc2ccccc2n1Cc1ccc(-c2ccccc2C(=O)Oc2ccc(Oc3ccccc3)cc2)cc1 | Non-toxic | Non-toxic | 2500 | Active | inactive | solubility at 0.5 h [13]: 22 mM (≈ 11.9 mg/mL)
6 | 100 | 11.5 | Stable | – | Stable | CCCc1nc2ccccc2n1Cc1ccc(-c2ccccc2C(=O)NC(C)(C)C)cc1 | Non-toxic | Non-toxic | 5200 | Active | inactive | Stability [10]: Stable
7 | 97.2 | 13.4 | Stable | – | – | CCCc1nc2ccccc2n1Cc1ccc(-c2ccccc2C(=O)OC(C)(C)C)cc1 | Non-toxic | Non-toxic | 2900 | Active | inactive | –
8 | 95.1 | < 11.1 | Stable | – | – | CCCNC(=O)c1ccccc1-c1ccc(Cn2c(CCC)nc3ccccc32)cc1 | Non-toxic | Non-toxic | 4500 | Active | inactive | –
9 | – | 10.8 | – | – | – | CCCc1nc2ccccc2n1Cc1ccc(-c2ccccc2C(=O)O)cc1 | – | – | – | – | – | Activity (K562 [14]): Active
10 | 78 | < 13.8 | Stable | 1.37 | – | CCCCOC(=O)c1ccccc1-c1ccc(Cn2c(CCC)nc3ccccc32)cc1 | Non-toxic | Non-toxic | 1600 | Active | inactive | –
11 | 91.9 | 13.1 | Stable | – | – | CCCc1nc2ccccc2n1Cc1ccc(-c2ccccc2C(=O)OC(C)C)cc1 | Non-toxic | Non-toxic | 2200 | Active | inactive | –
12 | 67.8 | 12.4 | Stable | 0.917 | – | CCCc1nc2ccccc2n1Cc1ccc(-c2ccccc2C(=O)OC)cc1 | Non-toxic | Non-toxic | 2400 | – | inactive | Drug uptake [15]: 3 nmol/mg; Activity (K562 [16]): Active; Drug uptake [6]: 4.7 nmol/mg; Drug uptake [8]: 3.5 nmol/mg
13 | 71.9 | < 12.8 | Stable | 1.05 | – | CCCc1nc2ccccc2n1Cc1ccc(-c2ccccc2C(=O)OCC)cc1 | Non-toxic | Non-toxic | 2100 | Active | inactive | –
14 | 98.4 | 12 | Stable | – | Stable | CCCc1nc2ccccc2n1Cc1ccc(-c2ccccc2C(=O)Nc2ccccc2)cc1 | Non-toxic | Non-toxic | 1600 | Active | inactive | Drug uptake [15]: 1.9 nmol/mg; Drug uptake [17]: 14.5 nmol/mg; Stability [10]: Stable; Drug uptake [8]: 2.7 nmol/mg
15 | 75.9 | < 13.6 | Stable | 1.16 | – | CCCOC(=O)c1ccccc1-c1ccc(Cn2c(CCC)nc3ccccc32)cc1 | Non-toxic | Non-toxic | 1800 | Active | inactive | –
16 | 99.1 | 10.8 | Stable | – | – | CCCc1nc2ccccc2n1Cc1ccc(-c2ccccc2C(=O)NC(C)C)cc1 | Non-toxic | Non-toxic | 4800 | Active | inactive | –
17 | 93.4 | 9.9 | Stable | – | Stable | CCCc1nc2ccccc2n1Cc1ccc(-c2ccccc2C(=O)NC)cc1 | Non-toxic | Non-toxic | 11200 | inactive | inactive | Drug uptake [18]: Not_active; Stability [12]: Stable; Drug uptake [6]: Not_active; half-life at 800 µM (amidase): 33.6 h
18 | 97.1 | < 11.6 | Stable | – | Stable | CCCCNC(=O)c1ccccc1-c1ccc(Cn2c(CCC)nc3ccccc32)cc1 | Non-toxic | Non-toxic | 1300 | Active | inactive | Stability [10]: Stable
